Test results from BindingDB's records for doi:10.1016/j.bioorg.2017.03.014 (University of Karachi, 2017).

Columns and labels:
Carbonic anhydrase 2 [1] = biological target: T1, Carbonic anhydrase 2 (Bos taurus, UniProt P00921); test: Carbonic Anhydrase II Inhibition Assay; details: pH 7.4; 25 °C
Method: In this assay, 4-nitrophenyl acetate (4-NPA), a colorless compound, was hydrolyzed to 4-nitrophenol and […]. The reaction was followed by measuring the formation of 4-nitrophenol, a yellow colored compound. The reaction was performed at 25 °C inbuffer containing HEPES and Tris-HCl at a total concentration of 20 mM and pH of 7.4 for each sample. The reaction mixture contained 140 μL of the HEPES-tris solution, 20 μL of freshly prepared aqueous solution of purified bovine erythrocyte CA-II (0.1 mg/mL of deionized water for 96-well), 20 μL of test compound in DMSO (10% final concentration), 20 μL of substrate 4-NPA at a concentration of 0.7 mM diluted in ethanol. The reaction was initiated by addition of 4-NPA after 15 min incubation of test compound, and each compound was tested 3-times at different concentrations. In this assay, the reaction was performed using 96-well plates.

Carbonic anhydrase 2 [2] = biological target: T1, Carbonic anhydrase 2; test: Carbonic Anhydrase II Kinetic Assay; details: pH 7.4
Method: Kinetic studies were performed by using different concentration of inhibitors over different concentrations of substrate (4-NPA) such as 0.175, 0.35, 0.70 and 1.40 mM. The enzyme 0.2 mg/mL concentration for each well was used after dissolving in de-ionized water. HEPES-tris ammonia was used as buffer at pH of 7.4. The change in absorbance was measured by keeping the 96-well flat bottom plate in ELISA reader (Spectra max 384, Molecular Devices USA) after addition of substrate for a period of 30 min at 25 °C with 1 min interval.

T1 sequence (P00921 whole entry): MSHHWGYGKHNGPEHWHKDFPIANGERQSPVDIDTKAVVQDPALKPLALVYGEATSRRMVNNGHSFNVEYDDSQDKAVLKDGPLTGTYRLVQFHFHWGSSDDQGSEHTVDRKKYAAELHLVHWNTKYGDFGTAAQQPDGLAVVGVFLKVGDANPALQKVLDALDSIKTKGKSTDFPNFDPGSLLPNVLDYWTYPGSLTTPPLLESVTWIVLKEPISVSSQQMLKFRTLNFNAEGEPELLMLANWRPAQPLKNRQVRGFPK

Compound	IC50 (Carbonic anhydrase 2 [1])	Ki (Carbonic anhydrase 2 [2])
O=C(N/N=C/c1ccc(Cl)cc1Cl)N/N=C/c1ccc(Cl)cc1Cl [N'',N'''-Bis[(E)-(2,4-dichlorophenyl)methylidene]carbonic dihydrazide (8)]	2670 nM	–
O=C(N/N=C/c1c(Cl)cccc1Cl)N/N=C/c1c(Cl)cccc1Cl [N'',N'''-Bis[(E)-(2,6-dichlorophenyl)methylidene]carbonic dihydrazide (9)]	1460 nM	1780 nM
O=C(N/N=C/c1ccccc1Br)N/N=C/c1ccccc1Br [N'',N'''-Bis[(E)-(2-bromophenyl)methylidene]carbonic dihydrazide (5)]	3960 nM	–
O=C(N/N=C/c1cc([N+](=O)[O-])ccc1Cl)N/N=C/c1cc([N+](=O)[O-])ccc1Cl [N'',N'''-Bis[(E)-(2-chloro-5-nitrophenyl)methylidene]carbonic dihydrazide (3)]	1370 nM	3580 nM
O=C(N/N=C/c1ccccc1Cl)N/N=C/c1ccccc1Cl [N'',N'''-Bis[(E)-(2-chlorophenyl)methylidene]carbonic dihydrazide (7)]	2330 nM	4120 nM
O=C(N/N=C/c1ccccc1[N+](=O)[O-])N/N=C/c1ccccc1[N+](=O)[O-] [N'',N'''-Bis[(E)-(2-nitrophenyl)methylidene]carbonic dihydrazide (2)]	1850 nM	1810 nM
O=C(N/N=C/c1ccc(Br)cc1)N/N=C/c1ccc(Br)cc1 [N'',N'''-Bis[(E)-(4-bromophenyl)methylidene]carbonic dihydrazide (4)]	2320 nM	2520 nM
O=C(N/N=C/c1ccc([N+](=O)[O-])cc1)N/N=C/c1ccc([N+](=O)[O-])cc1 [N'',N'''-Bis[(E)-(4-nitrophenyl)methylidene]carbonic dihydrazide (1)]	1330 nM	2350 nM
